Laboratory results reported in PubChem BioAssay AID2060503 (Molecular Pharmacology Branch, DTP, NCI, 2025).

Test system: 817829-284-R-J1-PDC complex spheroids, viability
Experiment: Anticancer human tumor 817829-284-R-J1-PDC patient-derived colon adenocarcinoma cell line growth inhibition [GQUAD]
Conditions: second compound 1 µM; first compound 0.1 µM; stronger effect = lower value
Summary of the method: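 Multi-cell-type spheroids of tumor cells with HUVEC and mesenchymal stem cells, treated with drug combinations. Concentrations descend in half-log steps from near clinical Cmax, or from 10 microM where Cmax is unknown; viability read-out.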
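Also: spheroids exposed to agents for 7 days before readout; percent viability relative to DMSO vehicle control taken as 100%.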

Row | SMILES | viability, T/C
1 | CC1COCCN1c1cc(C2(S(C)(=N)=O)CC2)nc(-c2ccnc3[nH]ccc23)n1 (stereo unspecified) + CN(C)c1ccc(Nc2c3ccc(NC(=O)CCN4CCCC4)cc3nc3cc(NC(=O)CCN4CCCC4)ccc23)cc1 | 98.5%
2 | COc1ccc([C@@H](O)c2cc(-c3ncnc4cc(N5CCOCC5)ccc34)c(F)cc2Cl)nn1 + CN(C)c1ccc(Nc2c3ccc(NC(=O)CCN4CCCC4)cc3nc3cc(NC(=O)CCN4CCCC4)ccc23)cc1 | 106%

Same assay, conditions: second compound 1 µM; first compound 0.316 µM; stronger effect = lower value

Row | SMILES | viability, T/C
3 | CC(C)n1c(=O)n(C)c2cnc3cc(F)c(-c4ccc(OCCCN5CCCCC5)nc4)cc3c21 + CN(C)c1ccc(Nc2c3ccc(NC(=O)CCN4CCCC4)cc3nc3cc(NC(=O)CCN4CCCC4)ccc23)cc1 | 97.6%
4 | CC1COCCN1c1cc(-c2ccnn2C)c2ccnc(-c3ccn[nH]3)c2n1 (stereo unspecified) + CN(C)c1ccc(Nc2c3ccc(NC(=O)CCN4CCCC4)cc3nc3cc(NC(=O)CCN4CCCC4)ccc23)cc1 | 9.31%
5 | CC1COCCN1c1cc(C2(O)CC3CCC(C2)O3)c2cnn(-c3ccn[nH]3)c2n1 (stereo unspecified) + CN(C)c1ccc(Nc2c3ccc(NC(=O)CCN4CCCC4)cc3nc3cc(NC(=O)CCN4CCCC4)ccc23)cc1 | 9.05%
6 | CC1COCCN1c1cc(C2(S(C)(=N)=O)CC2)nc(-c2ccnc3[nH]ccc23)n1 (stereo unspecified) + CN(C)c1ccc(Nc2c3ccc(NC(=O)CCN4CCCC4)cc3nc3cc(NC(=O)CCN4CCCC4)ccc23)cc1 | 76%
7 | COc1ccc([C@@H](O)c2cc(-c3ncnc4cc(N5CCOCC5)ccc34)c(F)cc2Cl)nn1 + CN(C)c1ccc(Nc2c3ccc(NC(=O)CCN4CCCC4)cc3nc3cc(NC(=O)CCN4CCCC4)ccc23)cc1 | 98%
8 | Cn1ncnc1[C@H]1c2n[nH]c(=O)c3cc(F)cc(c23)N[C@@H]1c1ccc(F)cc1 + CN(C)c1ccc(Nc2c3ccc(NC(=O)CCN4CCCC4)cc3nc3cc(NC(=O)CCN4CCCC4)ccc23)cc1 | 71.8%

Same assay, conditions: second compound 1 µM; first compound 1 µM; stronger effect = lower value

Row | SMILES | viability, T/C
9 | CC(C)n1c(=O)n(C)c2cnc3cc(F)c(-c4ccc(OCCCN5CCCCC5)nc4)cc3c21 + CN(C)c1ccc(Nc2c3ccc(NC(=O)CCN4CCCC4)cc3nc3cc(NC(=O)CCN4CCCC4)ccc23)cc1 | 96.2%
10 | CC1COCCN1c1cc(-c2ccnn2C)c2ccnc(-c3ccn[nH]3)c2n1 (stereo unspecified) + CN(C)c1ccc(Nc2c3ccc(NC(=O)CCN4CCCC4)cc3nc3cc(NC(=O)CCN4CCCC4)ccc23)cc1 | 8.05%
11 | CC1COCCN1c1cc(C2(O)CC3CCC(C2)O3)c2cnn(-c3ccn[nH]3)c2n1 (stereo unspecified) + CN(C)c1ccc(Nc2c3ccc(NC(=O)CCN4CCCC4)cc3nc3cc(NC(=O)CCN4CCCC4)ccc23)cc1 | 6.94%
12 | CC1COCCN1c1cc(C2(S(C)(=N)=O)CC2)nc(-c2ccnc3[nH]ccc23)n1 (stereo unspecified) + CN(C)c1ccc(Nc2c3ccc(NC(=O)CCN4CCCC4)cc3nc3cc(NC(=O)CCN4CCCC4)ccc23)cc1 | 24.1%
13 | COc1ccc([C@@H](O)c2cc(-c3ncnc4cc(N5CCOCC5)ccc34)c(F)cc2Cl)nn1 + CN(C)c1ccc(Nc2c3ccc(NC(=O)CCN4CCCC4)cc3nc3cc(NC(=O)CCN4CCCC4)ccc23)cc1 | 86.5%

Same assay, conditions: second compound 1 µM; first compound 3.16 µM; stronger effect = lower value

Row | SMILES | viability, T/C
14 | CC(C)n1c(=O)n(C)c2cnc3cc(F)c(-c4ccc(OCCCN5CCCCC5)nc4)cc3c21 + CN(C)c1ccc(Nc2c3ccc(NC(=O)CCN4CCCC4)cc3nc3cc(NC(=O)CCN4CCCC4)ccc23)cc1 | 91.1%
15 | CC1COCCN1c1cc(-c2ccnn2C)c2ccnc(-c3ccn[nH]3)c2n1 (stereo unspecified) + CN(C)c1ccc(Nc2c3ccc(NC(=O)CCN4CCCC4)cc3nc3cc(NC(=O)CCN4CCCC4)ccc23)cc1 | 7.11%
16 | CC1COCCN1c1cc(C2(O)CC3CCC(C2)O3)c2cnn(-c3ccn[nH]3)c2n1 (stereo unspecified) + CN(C)c1ccc(Nc2c3ccc(NC(=O)CCN4CCCC4)cc3nc3cc(NC(=O)CCN4CCCC4)ccc23)cc1 | 7.14%
17 | CC1COCCN1c1cc(C2(S(C)(=N)=O)CC2)nc(-c2ccnc3[nH]ccc23)n1 (stereo unspecified) + CN(C)c1ccc(Nc2c3ccc(NC(=O)CCN4CCCC4)cc3nc3cc(NC(=O)CCN4CCCC4)ccc23)cc1 | 10.8%
18 | COc1ccc([C@@H](O)c2cc(-c3ncnc4cc(N5CCOCC5)ccc34)c(F)cc2Cl)nn1 + CN(C)c1ccc(Nc2c3ccc(NC(=O)CCN4CCCC4)cc3nc3cc(NC(=O)CCN4CCCC4)ccc23)cc1 | 68.8%

Same assay, conditions: second compound 1 µM; first compound 10 µM; stronger effect = lower value

Row | SMILES | viability, T/C
19 | CC(C)n1c(=O)n(C)c2cnc3cc(F)c(-c4ccc(OCCCN5CCCCC5)nc4)cc3c21 + CN(C)c1ccc(Nc2c3ccc(NC(=O)CCN4CCCC4)cc3nc3cc(NC(=O)CCN4CCCC4)ccc23)cc1 | 94.6%
20 | CC1COCCN1c1cc(-c2ccnn2C)c2ccnc(-c3ccn[nH]3)c2n1 (stereo unspecified) + CN(C)c1ccc(Nc2c3ccc(NC(=O)CCN4CCCC4)cc3nc3cc(NC(=O)CCN4CCCC4)ccc23)cc1 | 5.77%
21 | CC1COCCN1c1cc(C2(O)CC3CCC(C2)O3)c2cnn(-c3ccn[nH]3)c2n1 (stereo unspecified) + CN(C)c1ccc(Nc2c3ccc(NC(=O)CCN4CCCC4)cc3nc3cc(NC(=O)CCN4CCCC4)ccc23)cc1 | 4.24%
22 | CC1COCCN1c1cc(C2(S(C)(=N)=O)CC2)nc(-c2ccnc3[nH]ccc23)n1 (stereo unspecified) + CN(C)c1ccc(Nc2c3ccc(NC(=O)CCN4CCCC4)cc3nc3cc(NC(=O)CCN4CCCC4)ccc23)cc1 | 7.23%
23 | COc1ccc([C@@H](O)c2cc(-c3ncnc4cc(N5CCOCC5)ccc34)c(F)cc2Cl)nn1 + CN(C)c1ccc(Nc2c3ccc(NC(=O)CCN4CCCC4)cc3nc3cc(NC(=O)CCN4CCCC4)ccc23)cc1 | 47%

Same assay, conditions: second compound 3.16 µM; first compound 0.000999 µM; stronger effect = lower value

Row | SMILES | viability, T/C
24 | Cn1ncnc1[C@H]1c2n[nH]c(=O)c3cc(F)cc(c23)N[C@@H]1c1ccc(F)cc1 + CN(C)c1ccc(Nc2c3ccc(NC(=O)CCN4CCCC4)cc3nc3cc(NC(=O)CCN4CCCC4)ccc23)cc1 | 92.2%

Same assay, conditions: second compound 3.16 µM; first compound 0.00316 µM; stronger effect = lower value

Row | SMILES | viability, T/C
25 | Cn1ncnc1[C@H]1c2n[nH]c(=O)c3cc(F)cc(c23)N[C@@H]1c1ccc(F)cc1 + CN(C)c1ccc(Nc2c3ccc(NC(=O)CCN4CCCC4)cc3nc3cc(NC(=O)CCN4CCCC4)ccc23)cc1 | 99.7%

Same assay, conditions: second compound 3.16 µM; first compound 0.00999 µM; stronger effect = lower value

Row | SMILES | viability, T/C
26 | Cn1ncnc1[C@H]1c2n[nH]c(=O)c3cc(F)cc(c23)N[C@@H]1c1ccc(F)cc1 + CN(C)c1ccc(Nc2c3ccc(NC(=O)CCN4CCCC4)cc3nc3cc(NC(=O)CCN4CCCC4)ccc23)cc1 | 90.6%

Same assay, conditions: second compound 3.16 µM; first compound 0.0316 µM; stronger effect = lower value

Row | SMILES | viability, T/C
27 | CC(C)n1c(=O)n(C)c2cnc3cc(F)c(-c4ccc(OCCCN5CCCCC5)nc4)cc3c21 + CN(C)c1ccc(Nc2c3ccc(NC(=O)CCN4CCCC4)cc3nc3cc(NC(=O)CCN4CCCC4)ccc23)cc1 | 90.8%
28 | CC1COCCN1c1cc(-c2ccnn2C)c2ccnc(-c3ccn[nH]3)c2n1 (stereo unspecified) + CN(C)c1ccc(Nc2c3ccc(NC(=O)CCN4CCCC4)cc3nc3cc(NC(=O)CCN4CCCC4)ccc23)cc1 | 36.6%
29 | CC1COCCN1c1cc(C2(O)CC3CCC(C2)O3)c2cnn(-c3ccn[nH]3)c2n1 (stereo unspecified) + CN(C)c1ccc(Nc2c3ccc(NC(=O)CCN4CCCC4)cc3nc3cc(NC(=O)CCN4CCCC4)ccc23)cc1 | 28.9%
30 | CC1COCCN1c1cc(C2(S(C)(=N)=O)CC2)nc(-c2ccnc3[nH]ccc23)n1 (stereo unspecified) + CN(C)c1ccc(Nc2c3ccc(NC(=O)CCN4CCCC4)cc3nc3cc(NC(=O)CCN4CCCC4)ccc23)cc1 | 91.4%
31 | COc1ccc([C@@H](O)c2cc(-c3ncnc4cc(N5CCOCC5)ccc34)c(F)cc2Cl)nn1 + CN(C)c1ccc(Nc2c3ccc(NC(=O)CCN4CCCC4)cc3nc3cc(NC(=O)CCN4CCCC4)ccc23)cc1 | 93.6%
